# Where two headings read alike, the source gives them in different places. Square brackets hold non-standard residues; d marks the D form. Peptide text beside a SMILES is read from it.
# What was measured:
# [1] = system: Enterobacter cloacae clinical strains; assay type: cell-based; parameters: Minimum inhibitory concentration: unit: μg/ml; conditions: microdilution, Muller Hinton broth-cation adjusted, 0.02% BSA, 0.2% acetic acid
# In short: (§1)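 Antifungal testing uses potato dextrose broth; antibacterial testing uses Mueller Hinton broth. Cell density is set to 5.0×10^5 cfu/ml and incubation runs 20–24 h at 37° C. MIC is the lowest concentration, within 0.125–128 μg/ml, at which no growth is visible.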
# [2] = system: Proteus mirabilis clinical strains; assay type: cell-based; parameters: Minimum inhibitory concentration: unit: μg/ml; conditions: microdilution, Muller Hinton broth-cation adjusted, 0.02% BSA, 0.2% acetic acid
# In short: as §1
# [3] = system: Serratia marcescens clinical strains; assay type: cell-based; parameters: Minimum inhibitory concentration: unit: μg/ml; conditions: microdilution, Muller Hinton broth-cation adjusted, 0.02% BSA, 0.2% acetic acid
# In short: as §1
# [4] = system: Staphylococcus aureus clinical strains; assay type: cell-based; parameters: Minimum inhibitory concentration: unit: μg/ml; conditions: microdilution, Muller Hinton broth-cation adjusted, 0.02% BSA, 0.2% acetic acid
# In short: as §1
# [5] = system: Streptococcus pneumoniae clinical strains; assay type: cell-based; parameters: Minimum inhibitory concentration: unit: μg/ml; conditions: microdilution, Muller Hinton broth-cation adjusted, 0.02% BSA, 0.2% acetic acid
# In short: as §1
# [6] = system: Candida albicans clinical strains; assay: MIC, clinical yeast strains; assay type: cell-based; parameters: unit: μg/ml
# In short: as §1
# [7] = system: C. glabrata clinical strains; assay: MIC, clinical yeast strains; assay type: cell-based, Candida glabrata; parameters: unit: µg/ml
# In short: as §1
# [8] = system: C. parapsilosis clinical strains; assay: MIC, clinical yeast strains; assay type: cell-based, Candida parapsilosis; parameters: unit: µg/ml
# In short: as §1
# [9] = system: C. quillermondiae clinical strains; assay: MIC, clinical yeast strains; assay type: cell-based, Candida quillermondiae; parameters: unit: μg/ml; conditions: C. quillermondiae clinical yeast strain 1
# In short: as §1
# [10] = system: Escherichia coli clinical strains; assay type: cell-based; conditions: microdilution, Muller Hinton broth-cation adjusted, 0.02% BSA, 0.2% acetic acid
# In short: as §1
# [11] = system: Klebsiella pneumoniae clinical strains; assay type: cell-based; conditions: microdilution, Muller Hinton broth-cation adjusted, 0.02% BSA, 0.2% acetic acid
# In short: as §1
# [12] = system: Pseudomonas aeruginosa clinical strains; assay type: cell-based; conditions: microdilution, Muller Hinton broth-cation adjusted, 0.02% BSA, 0.2% acetic acid
# In short: as §1
# [13] = Enterobacter cloacae clinical strain 1
# [14] = Enterobacter cloacae clinical strain 2
# [15] = Enterobacter cloacae clinical strain 3
# [16] = Enterobacter cloacae clinical strain 4
# [17] = Enterobacter cloacae clinical strain 5
# [18] = Proteus mirabilis clinical strain 1
# [19] = Proteus mirabilis clinical strain 2
# [20] = Proteus mirabilis clinical strain 3
# [21] = Proteus mirabilis clinical strain 4
# [22] = Proteus mirabilis clinical strain 5
# [23] = Serratia marcescens clinical strain 1
# [24] = Serratia marcescens clinical strain 2
# [25] = Serratia marcescens clinical strain 3
# [26] = Serratia marcescens clinical strain 4
# [27] = Serratia marcescens clinical strain 5
# [28] = Staphylococcus aureus clinical strain 1
# [29] = Staphylococcus aureus clinical strain 2
# [30] = Staphylococcus aureus clinical strain 3
# [31] = Staphylococcus aureus clinical strain 4
# [32] = Staphylococcus aureus clinical strain 5
# [33] = Streptococcus pneumoniae clinical strain 1
# [34] = Streptococcus pneumoniae clinical strain 2
# [35] = Streptococcus pneumoniae clinical strain 3
# [36] = Streptococcus pneumoniae clinical strain 4
# [37] = Streptococcus pneumoniae clinical strain 5
# [38] = Candida albicans clinical yeast strain 1
# [39] = Candida albicans clinical yeast strain 2
# [40] = Candida albicans clinical yeast strain 3
# [41] = Candida albicans clinical yeast strain 4
# [42] = Candida albicans clinical yeast strain 5
# [43] = C. glabrata clinical yeast strain 1
# [44] = C. glabrata clinical yeast strain 2
# [45] = C. glabrata clinical yeast strain 3
# [46] = C. glabrata clinical yeast strain 4
# [47] = C. parapsilosis clinical yeast strain 1
# [48] = C. parapsilosis clinical yeast strain 2
# [49] = C. parapsilosis clinical yeast strain 3
# [50] = C. parapsilosis clinical yeast strain 4
# [51] = Escherichia coli clinical strain 1
# [52] = Escherichia coli clinical strain 2
# [53] = Escherichia coli clinical strain 3
# [54] = Escherichia coli clinical strain 4
# [55] = Escherichia coli clinical strain 5
# [56] = Klebsiella pneumoniae clinical strain 1
# [57] = Klebsiella pneumoniae clinical strain 2
# [58] = Klebsiella pneumoniae clinical strain 3
# [59] = Klebsiella pneumoniae clinical strain 4
# [60] = Klebsiella pneumoniae clinical strain 5
# [61] = Pseudomonas aeruginosa clinical strain 1
# [62] = Pseudomonas aeruginosa clinical strain 2
# [63] = Pseudomonas aeruginosa clinical strain 3
# [64] = Pseudomonas aeruginosa clinical strain 4
# [65] = Pseudomonas aeruginosa clinical strain 5
smiles,measurement,setting,value
CC(C)C[C@@H](NC(=O)[C@H](N)CCCNC(=N)N)C(=O)N[C@H](CCCCN)C(=O)N[C@H](Cc1c[nH]c2ccccc12)C(=O)N[C@H](Cc1ccccc1)C(=O)N[C@H](Cc1c[nH]c2ccccc12)C(=O)N[C@H](CC(C)C)C(=O)N[C@H](Cc1ccccc1)C(=O)N[C@H](CCCNC(=N)N)C(=O)N[C@H](CCCCN)C(=O)N[C@H](CCCNC(=N)N)C(=O)O [Chain307D] (H-[dR][dL][dK][dW][dF][dW][dL][dF][dR][dK][dR]-OH),Minimum inhibitory concentration,[1]; [13],4
same,Minimum inhibitory concentration,[1]; [14],8
same,Minimum inhibitory concentration,[1]; [15],4
same,Minimum inhibitory concentration,[1]; [16],4
same,Minimum inhibitory concentration,[1]; [17],4
same,Minimum inhibitory concentration,[2]; [18],>128
same,Minimum inhibitory concentration,[2]; [19],128
same,Minimum inhibitory concentration,[2]; [20],128
same,Minimum inhibitory concentration,[2]; [21],>128
same,Minimum inhibitory concentration,[2]; [22],>128
same,Minimum inhibitory concentration,[3]; [23],>128
same,Minimum inhibitory concentration,[3]; [24],>128
same,Minimum inhibitory concentration,[3]; [25],128
same,Minimum inhibitory concentration,[3]; [26],>128
same,Minimum inhibitory concentration,[3]; [27],>128
same,Minimum inhibitory concentration,[4]; [28],2
same,Minimum inhibitory concentration,[4]; [29],2
same,Minimum inhibitory concentration,[4]; [30],2
same,Minimum inhibitory concentration,[4]; [31],2
same,Minimum inhibitory concentration,[4]; [32],2
same,Minimum inhibitory concentration,[5]; [33],4
same,Minimum inhibitory concentration,[5]; [34],4
same,Minimum inhibitory concentration,[5]; [35],4
same,Minimum inhibitory concentration,[5]; [36],2
same,Minimum inhibitory concentration,[5]; [37],2
same,Minimum inhibitory concentration,[6]; [38],16
same,Minimum inhibitory concentration,[6]; [39],16
same,Minimum inhibitory concentration,[6]; [40],16
same,Minimum inhibitory concentration,[6]; [41],16
same,Minimum inhibitory concentration,[6]; [42],16
same,Minimum inhibitory concentration,[7]; [43],8
same,Minimum inhibitory concentration,[7]; [44],16
same,Minimum inhibitory concentration,[7]; [45],8
same,Minimum inhibitory concentration,[7]; [46],16
same,Minimum inhibitory concentration,[8]; [47],16
same,Minimum inhibitory concentration,[8]; [48],8
same,Minimum inhibitory concentration,[8]; [49],8
same,Minimum inhibitory concentration,[8]; [50],8
same,Minimum inhibitory concentration,[9],4
same,Minimum inhibitory concentration,[10]; [51],4
same,Minimum inhibitory concentration,[10]; [52],4
same,Minimum inhibitory concentration,[10]; [53],4
same,Minimum inhibitory concentration,[10]; [54],2
same,Minimum inhibitory concentration,[10]; [55],4
same,Minimum inhibitory concentration,[11]; [56],8
same,Minimum inhibitory concentration,[11]; [57],8
same,Minimum inhibitory concentration,[11]; [58],16
same,Minimum inhibitory concentration,[11]; [59],16
same,Minimum inhibitory concentration,[11]; [60],4
same,Minimum inhibitory concentration,[12]; [61],16
same,Minimum inhibitory concentration,[12]; [62],16
same,Minimum inhibitory concentration,[12]; [63],16
same,Minimum inhibitory concentration,[12]; [64],8
same,Minimum inhibitory concentration,[12]; [65],8
CC[C@@H](C)[C@@H](N)C(=O)N[C@H](Cc1c[nH]c2ccccc12)C(=O)N[C@H](CCCCN)C(=O)N[C@H](CCCNC(=N)N)C(=O)N[C@H](Cc1ccccc1)C(=O)N[C@H](CCCNC(=N)N)C(=O)N[C@H](CC(C)C)C(=O)N[C@H](Cc1ccccc1)C(=O)N[C@H](CCCCN)C(=O)N[C@H](CCCCN)C(=O)N[C@H](Cc1c[nH]c2ccccc12)C(=O)O [Chain304D] (H-[dI][dW][dK][dR][dF][dR][dL][dF][dK][dK][dW]-OH),Minimum inhibitory concentration,[1]; [13],64
same,Minimum inhibitory concentration,[1]; [14],64
same,Minimum inhibitory concentration,[1]; [15],128
same,Minimum inhibitory concentration,[1]; [16],128
same,Minimum inhibitory concentration,[1]; [17],32
same,Minimum inhibitory concentration,[2]; [18],>128
same,Minimum inhibitory concentration,[2]; [19],>128
same,Minimum inhibitory concentration,[2]; [20],>128
same,Minimum inhibitory concentration,[2]; [21],>128
same,Minimum inhibitory concentration,[2]; [22],>128
same,Minimum inhibitory concentration,[3]; [23],>128
same,Minimum inhibitory concentration,[3]; [24],>128
same,Minimum inhibitory concentration,[3]; [25],>128
same,Minimum inhibitory concentration,[3]; [26],>128
same,Minimum inhibitory concentration,[3]; [27],>128
same,Minimum inhibitory concentration,[4]; [28],32
same,Minimum inhibitory concentration,[4]; [29],32
same,Minimum inhibitory concentration,[4]; [30],16
same,Minimum inhibitory concentration,[4]; [31],16
same,Minimum inhibitory concentration,[4]; [32],16
same,Minimum inhibitory concentration,[5]; [33],128
same,Minimum inhibitory concentration,[5]; [34],128
same,Minimum inhibitory concentration,[5]; [35],128
same,Minimum inhibitory concentration,[5]; [36],128
same,Minimum inhibitory concentration,[5]; [37],64
same,Minimum inhibitory concentration,[6]; [38],16
same,Minimum inhibitory concentration,[6]; [39],16
same,Minimum inhibitory concentration,[6]; [40],16
same,Minimum inhibitory concentration,[6]; [41],16
same,Minimum inhibitory concentration,[6]; [42],32
same,Minimum inhibitory concentration,[7]; [43],16
same,Minimum inhibitory concentration,[7]; [44],16
same,Minimum inhibitory concentration,[7]; [45],8
same,Minimum inhibitory concentration,[7]; [46],64
same,Minimum inhibitory concentration,[8]; [47],64
same,Minimum inhibitory concentration,[8]; [48],64
same,Minimum inhibitory concentration,[8]; [49],32
same,Minimum inhibitory concentration,[8]; [50],16
same,Minimum inhibitory concentration,[9],16
same,Minimum inhibitory concentration,[10]; [51],1
same,Minimum inhibitory concentration,[10]; [52],16
same,Minimum inhibitory concentration,[10]; [53],16
same,Minimum inhibitory concentration,[10]; [54],32
same,Minimum inhibitory concentration,[10]; [55],32
same,Minimum inhibitory concentration,[11]; [56],>128
same,Minimum inhibitory concentration,[11]; [57],>128
same,Minimum inhibitory concentration,[11]; [58],>128
same,Minimum inhibitory concentration,[11]; [59],>128
same,Minimum inhibitory concentration,[11]; [60],64
same,Minimum inhibitory concentration,[12]; [61],32
same,Minimum inhibitory concentration,[12]; [62],64
same,Minimum inhibitory concentration,[12]; [63],64
same,Minimum inhibitory concentration,[12]; [64],64
same,Minimum inhibitory concentration,[12]; [65],16

# Reference: US10457709B2, “Antimicrobial peptides, their variants and uses” (priority 2015, dated 2019)
